# According to patent publication US20230159532A1, “PARATHYROID HORMONE (PTH) RECEPTOR ANTAGONISTS AND USES THEREOF” (Crinetics Pharmaceuticals, Inc., priority 2021, published 2023):
# Target: T1, human PTHR1 receptor (Homo sapiens, UniProt Q03431)
# T1 construct: purchased Eurofins HTS030M
# T1 sequence (Q03431 27-593): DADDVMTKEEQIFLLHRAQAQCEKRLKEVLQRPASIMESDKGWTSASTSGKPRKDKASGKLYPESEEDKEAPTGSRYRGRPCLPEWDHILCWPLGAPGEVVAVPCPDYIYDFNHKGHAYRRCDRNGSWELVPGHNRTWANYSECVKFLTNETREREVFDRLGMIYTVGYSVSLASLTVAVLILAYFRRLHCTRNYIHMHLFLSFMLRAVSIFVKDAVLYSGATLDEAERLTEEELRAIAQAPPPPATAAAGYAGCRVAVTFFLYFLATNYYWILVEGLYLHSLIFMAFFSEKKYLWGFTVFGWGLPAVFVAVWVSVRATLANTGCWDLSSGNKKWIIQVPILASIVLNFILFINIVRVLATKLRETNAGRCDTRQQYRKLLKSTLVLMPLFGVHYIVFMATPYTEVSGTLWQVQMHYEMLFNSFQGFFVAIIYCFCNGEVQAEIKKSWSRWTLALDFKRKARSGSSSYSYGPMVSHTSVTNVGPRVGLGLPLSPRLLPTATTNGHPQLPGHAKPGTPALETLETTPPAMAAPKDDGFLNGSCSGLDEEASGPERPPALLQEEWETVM
# Test: Competitive antagonist binding assay for hPTH-R1 (radioactive competition binding, SPA beads)
# Conditions: human PTHR1 membranes, [125I]-[Nle8,18,Tyr34]-PTH(1-34) 0.2 nM, 90 minutes at room temperature; read-out: hPTHR1 Ki
# Experimental: Competitive Antagonist Binding Assay Protocol for hPTH-R1 Antagonists:
# The inhibition of binding to the human PTHR1 receptor was measured in a radioactive competition binding assay using the radiolabeled [^125I]-[NLE^8,18, TYR^34]-parathyroid hormone (1-34) ligand (PerkinElmer Cat# NEX244, custom synthesis) as the probe ligand for the receptor. Briefly, membranes from cells expressing the human PTHR1 (Eurofins Cat# HTS030M) were incubated with SPA beads (PerkinElmer Cat# RPNQ0001) in binding assay buffer [50 mM HEPES (Biopioneer Cat# C0113), 5 mM MgCl2 (Sigma Cat# M8266), 10 mM CaCl2 (Fisher Scientific Cat# BP510), 0.1% BSA (Fisher Scientific Cat# BP1600), 0.01% TritonX-100 (Bio-Rad Cat#161-0407), and protease inhibitors (Pierce Cat# A32963); pH 7.4]. Membranes bound to SPA bead were treated with various dilutions of compounds (final concentrations typically 0-10,000 nM), and 0.2 nM radiolabeled ligand in 96-well isoplates (PerkinElmer Cat#6005040) for 90 minutes at room temperature. The radioactive signal was detected using a MicroBetaTriLux 1450 LSC (PerkinElmer). All data manipulations to determine the Ki values were performed using GraphPad v8 (GraphPad, San Diego Calif.).
row,Ki,Structure (SMILES)
1,< 100 nM,"CCN1C(=O)N(c2c(F)cc(NCCNC)cc2F)c2cccc(C)c2-c2cc(Cl)cnc21 [1-21, 4-chloro-10-(2,6-difluoro-4-{[2-(methylamino)ethyl]amino}phenyl)-8-ethyl-15-methyl-6,8,10-triazatricyclo[9.4.0.0^2,7]pentadeca-1(11),2(7),3,5,12,14-hexaen-9-one]"
2,< 100 nM,"CCN1C(=O)N(c2c(F)cc(NCCN)cc2F)c2cc(Cl)ccc2-c2cc(C)cnc21 [1-22, 10-{4-[(2-aminoethyl)amino]-2,6-difluorophenyl}-13-chloro-8-ethyl-4-methyl-6,8,10-triazatricyclo[9.4.0.0^2,7]pentadeca-1(11),2(7),3,5,12,14-hexaen-9-one]"
3,< 100 nM,"CCN1C(=O)N(c2c(F)cc(NCCNC)cc2F)c2cc(Cl)cc(C)c2-c2cccnc21 [1-23, 13-chloro-10-(2,6-difluoro-4-{[2-(methylamino)ethyl]amino}phenyl)-8-ethyl-15-methyl-6,8,10-triazatricyclo[9.4.0.0^2,7]pentadeca-1(11),2(7),3,5,12,14-hexaen-9-one]"
4,< 100 nM,"CCN1C(=O)N(c2c(F)cc(NCCNC)cc2F)c2cc(Cl)ccc2-c2cc(C3CC3)cnc21 [1-24, 13-chloro-4-cyclopropyl-10-(2,6-difluoro-4-{[2-(methylamino)ethyl]amino}phenyl)-8-ethyl-6,8,10-triazatricyclo[9.4.0.0^2,7]pentadeca-1(11),2(7),3,5,12,14-hexaen-9-one]"
5,< 100 nM,"CCN1C(=O)N(c2c(F)cc(NCCNCCCC(=O)O)cc2F)c2cc(Cl)ccc2-c2cc(C)cnc21 [1-25, 4-({2-[(4-{13-chloro-8-ethyl-4-methyl-9-oxo-6,8,10-triazatricyclo[9.4.0.0^2,7]pentadeca-1(11),2(7),3,5,12,14-hexaen-10-yl}-3,5-difluorophenyl)amino]ethyl}amino)butanoic acid]"
6,< 100 nM,"CCN1C(=O)N(c2c(F)cc(NCCNC3CCOCC3)cc2F)c2cc(Cl)ccc2-c2cc(C)cnc21 [1-27, 13-chloro-10-[2,6-difluoro-4-({2-[(oxan-4-yl)amino]ethyl}amino)phenyl]-8-ethyl-4-methyl-6,8,10-triazatricyclo[9.4.0.0^2,7]pentadeca-1(11),2(7),3,5,12,14-hexaen-9-one]"
7,< 100 nM,"CCN1C(=O)N(c2c(F)cc(NCCNC3CCOC3)cc2F)c2cc(Cl)ccc2-c2cc(C)cnc21 (stereo not shown) [1-28, 13-chloro-10-[2,6-difluoro-4-({2-[(oxolan-3-yl)amino]ethyl}amino)phenyl]-8-ethyl-4-methyl-6,8,10-triazatricyclo[9.4.0.0^2,7]pentadeca-1(11),2(7),3,5,12,14-hexaen-9-one]"
8,< 100 nM,"CNCCNc1cc(F)c(N2C(=O)N(C)c3ncc(Cl)cc3-c3ccc(Cl)cc32)c(F)c1 [1-30, 4,13-dichloro-10-(2,6-difluoro-4-{[2-(methylamino)ethyl]amino}phenyl)-8-methyl-6,8,10-triazatricyclo[9.4.0.0^2,7]pentadeca-1(11),2(7),3,5,12,14-hexaen-9-one]"
9,< 100 nM,"CCN1C(=O)N(c2c(F)cc(NCCNCCO)cc2F)c2cc(Cl)cc(C)c2-c2cc(F)cnc21 [1-31, 13-chloro-10-[2,6-difluoro-4-({2-[(2-hydroxyethyl)amino]ethyl}amino)phenyl]-8-ethyl-4-fluoro-15-methyl-6,8,10-triazatricyclo[9.4.0.0^2,7]pentadeca-1(11),2(7),3,5,12,14-hexaen-9-one]"
10,< 100 nM,"CCN1C(=O)N(c2c(F)cc(NCCNC)cc2F)c2cc(Cl)cc(C)c2-c2cc(F)cnc21 [1-32, 13-chloro-10-(2,6-difluoro-4-{[2-(methylamino)ethyl]amino}phenyl)-8-ethyl-4-fluoro-15-methyl-6,8,10-triazatricyclo[9.4.0.0^2,7]pentadeca-1(11),2(7),3,5,12,14-hexaen-9-one]"
11,< 100 nM,"CN1C(=O)N(c2c(F)cc(NCCN)cc2F)c2cc(Cl)ccc2-c2cc(Cl)cnc21 [1-33, 10-{4-[(2-aminoethyl)amino]-2,6-difluorophenyl}-4,13-dichloro-8-methyl-6,8,10-triazatricyclo[9.4.0.0^2,7]pentadeca-1(11),2(7),3,5,12,14-hexaen-9-one]"
12,< 100 nM,"CN1C(=O)N(c2c(F)cc(NCCNCCO)cc2F)c2cc(Cl)ccc2-c2cc(Cl)cnc21 [1-34, 4,13-dichloro-10-[2,6-difluoro-4-({2-[(2-hydroxyethyl)amino]ethyl}amino)phenyl]-8-methyl-6,8,10-triazatricyclo[9.4.0.0^2,7]pentadeca-1(11),2(7),3,5,12,14-hexaen-9-one]"
13,< 100 nM,"CN1C(=O)N(c2c(F)cc(NCCNC3CCOCC3)cc2F)c2cc(Cl)ccc2-c2cc(Cl)cnc21 [1-35, 4,13-dichloro-10-[2,6-difluoro-4-({2-[(oxan-4-yl)amino]ethyl}amino)phenyl]-8-methyl-6,8,10-triazatricyclo[9.4.0.0^2,7]pentadeca-1(11),2(7),3,5,12,14-hexaen-9-one]"
14,< 100 nM,"CCN1C(=O)N(c2c(F)cc(NCCNC)cc2F)c2cc(Cl)cc(C)c2-c2cc(Cl)cnc21 [1-36, 4,13-dichloro-10-(2,6-difluoro-4-{[2-(methylamino)ethyl]amino}phenyl)-8-ethyl-15-methyl-6,8,10-triazatricyclo[9.4.0.0^2,7]pentadeca-1(11),2(7),3,5,12,14-hexaen-9-one]"
15,< 100 nM,"CCN1C(=O)N(c2c(F)cc(NCCNCCO)cc2F)c2cc(Cl)cc(Cl)c2-c2cc(F)cnc21 [1-37, 13,15-dichloro-10-[2,6-difluoro-4-({2-[(2-hydroxyethyl)amino]ethyl}amino)phenyl]-8-ethyl-4-fluoro-6,8,10-triazatricyclo[9.4.0.0^2,7]pentadeca-1(11),2(7),3,5,12,14-hexaen-9-one]"
16,< 100 nM,"CCN1C(=O)N(c2c(F)cc(NCCNC)cc2F)c2cc(Cl)cc(Cl)c2-c2cc(F)cnc21 [1-38, 13,15-dichloro-10-(2,6-difluoro-4-{[2-(methylamino)ethyl]amino}phenyl)-8-ethyl-4-fluoro-6,8,10-triazatricyclo[9.4.0.0^2,7]pentadeca-1(11),2(7),3,5,12,14-hexaen-9-one]"
17,< 100 nM,"CNCCNc1cc(F)c(N2C(=O)N(C(C)C)c3ncc(Cl)cc3-c3ccc(Cl)cc32)c(F)c1 [1-39, 4,13-dichloro-10-(2,6-difluoro-4-{[2-(methylamino)ethyl]amino}phenyl)-8-(propan-2-yl)-6,8,10-triazatricyclo[9.4.0.0^2,7]pentadeca-1(11),2(7),3,5,12,14-hexaen-9-one]"
18,< 100 nM,"CCCN1C(=O)N(c2c(F)cc(NCCNC)cc2F)c2cc(Cl)ccc2-c2cc(Cl)cnc21 [1-40, 4,13-dichloro-10-(2,6-difluoro-4-{[2-(methylamino)ethyl]amino}phenyl)-8-propyl-6,8,10-triazatricyclo[9.4.0.0^2,7]pentadeca-1(11),2(7),3,5,12,14-hexaen-9-one]"
19,> 10000 nM,"CCN1C(=O)N(c2c(F)cc(NCC(=O)O)cc2F)c2cc(Cl)ccc2-c2cc(Cl)cnc21 [1-41, 2-[(4-{4,13-dichloro-8-ethyl-9-oxo-6,8,10-triazatricyclo[9.4.0.0^2,7]pentadeca-1(11),2(7),3,5,12,14-hexaen-10-yl}-3,5-difluorophenyl)amino]acetic acid]"
20,< 100 nM,"CCN1C(=O)N(c2c(F)cc(N3CC[C@@H](N)C3)cc2F)c2cc(Cl)ccc2-c2cc(Cl)cnc21 [1-42, 10-{4-[(3R)-3-aminopyrrolidin-1-yl]-2,6-difluorophenyl}-4,13-dichloro-8-ethyl-6,8,10-triazatricyclo[9.4.0.0^2,7]pentadeca-1(11),2(7),3,5,12,14-hexaen-9-one]"
21,< 100 nM,"CCN1C(=O)N(c2c(F)cc(N3CC[C@H](N)C3)cc2F)c2cc(Cl)ccc2-c2cc(Cl)cnc21 [1-43, 10-{4-[(3S)-3-aminopyrrolidin-1-yl]-2,6-difluorophenyl}-4,13-dichloro-8-ethyl-6,8,10-triazatricyclo[9.4.0.0^2,7]pentadeca-1(11),2(7),3,5,12,14-hexaen-9-one]"
22,< 100 nM,"CCN1C(=O)N(c2c(F)cc(N3CC(N)C3)cc2F)c2cc(Cl)ccc2-c2cc(Cl)cnc21 [1-44, 10-[4-(3-aminoazetidin-1-yl)-2,6-difluorophenyl]-4,13-dichloro-8-ethyl-6,8,10-triazatricyclo[9.4.0.0^2,7]pentadeca-1(11),2(7),3,5,12,14-hexaen-9-one]"
